Results as given in patent US11053218B2, “3-(1-oxoisoindolin-2-yl)piperidine-2,6-dione derivatives and uses thereof” (Novartis AG, priority 2017, dated 2021).
Like-named read-outs stand apart in the source and are kept apart here.

How the values were obtained:
Assay type in all cases: cell-based
IKZF2 = IKZF2 (Homo sapiens, UniProt Q96SW2+Q9UKS7); assay: Prolabel quantification of IKZF2 protein levels in 293GT cells
IKZF1 = IKZF1 (Homo sapiens, UniProt Q13422+Q96SW2); assay: Prolabel quantification of IKZF1 protein levels in 293GT cells; conditions: Prolabel assay, read-out: IKZF1 EC50
GSPT1 = GSPT1 (Homo sapiens, UniProt P15170+Q96SW2); assay: Prolabel quantification of GSPT1 protein levels in 293GT cells; conditions: Prolabel assay, read-out: GSPT1 EC50
Description: The Prolabel system from DiscoverX was used to develop high-throughput and quantitative assays to measure changes in IKZF1, IKZF2 and GSPT1 protein levels in response to compounds. The prolabel tag was derived from the alpha fragment of beta galactosidase and has the following protein sequence: mssnslavvlqrrdwenpgvtqlnrlaahppfaswrnseeartdrpsqqlrslnge. The complementary fragment of beta-galactosidase (from DiscoverX), is added to the prolabel tag to form an active beta galactosidase enzyme whose activity can be precisely measured. In this way, the levels of a fusion protein with the prolabel tag can be quantified in cell lysates.
Lentiviral vectors, based on the Invitrogen pLenti6.2/V5 DEST backbone, were constructed that placed the prolabel tag upstream of IKZF1, IKZF2 or GSPT1 and expressed the fusion protein from a CMV promoter.
To ensure moderate and consistent expression of the prolabel fusion proteins across all cells in the population, stable cell lines were constructed from cells expressing a single copy of the construct. Lentivirus packaged with the constructs was made using the Virapower kit from Invitrogen.
The levels of prolabel tagged fusion proteins in compound treated cell lines were measured as follows:
Day 1, Cells were diluted to 1.0×10^6 cells/ml in normal growth medium. 17.5 μL of cells were plated in each well of a solid white 384 well plate. Plates were incubated overnight in a 37° C. tissue culture incubator.
Day 2, Serial dilutions of compounds were made in 384 well plates from 10 mM stocks. 15 μL of DMSO was added to each well of a 384 well plate. In the first column 15 μL of stock compound was added. The solution was mixed and 15 μL was transferred to the next column. This was repeated until 20 two-fold dilutions were prepared. 2.5 μL of diluted compounds were transferred into 60 μL of cell culture medium in another 384 well plate, and mixed well. 2.5 μL of this mixture was added to the plated cells. The final DMSO concentration was 0.5% and the highest concentration of compound was 50 μM. Plates were incubated overnight (e.g., about 14 h, 18 h, or 24 h) in a 37° C. tissue culture incubator.
Day 3, Plates were removed from the incubator and allowed to equilibrate at rt for 30 minutes. Prolabel substrate (DiscoverX PathHunter Prolabel Detection Kit, User manual: 93-0180) was added as described by the manufacturers protocols. Plates were incubated at rt for three hours and luminescence was read using an Envision reader (Perkin Elmer) Data was analyzed and visualized using the Spotfire software package.

[1] = 24 h, 10 μM, 24 h, 293GT cells; read-out: IKZF2 % protein reduction at 10 μM, 24 h
[2] = Prolabel assay, 293GT cells; read-out: IKZF2 EC50
[3] = 10 μM, 24 h, 293GT cells; read-out: IKZF2 % protein reduction at 10 μM, 24 h
[4] = Prolabel assay in HEK293GT cells, bar graph

Sequence of IKZF1 (Q13422 whole entry): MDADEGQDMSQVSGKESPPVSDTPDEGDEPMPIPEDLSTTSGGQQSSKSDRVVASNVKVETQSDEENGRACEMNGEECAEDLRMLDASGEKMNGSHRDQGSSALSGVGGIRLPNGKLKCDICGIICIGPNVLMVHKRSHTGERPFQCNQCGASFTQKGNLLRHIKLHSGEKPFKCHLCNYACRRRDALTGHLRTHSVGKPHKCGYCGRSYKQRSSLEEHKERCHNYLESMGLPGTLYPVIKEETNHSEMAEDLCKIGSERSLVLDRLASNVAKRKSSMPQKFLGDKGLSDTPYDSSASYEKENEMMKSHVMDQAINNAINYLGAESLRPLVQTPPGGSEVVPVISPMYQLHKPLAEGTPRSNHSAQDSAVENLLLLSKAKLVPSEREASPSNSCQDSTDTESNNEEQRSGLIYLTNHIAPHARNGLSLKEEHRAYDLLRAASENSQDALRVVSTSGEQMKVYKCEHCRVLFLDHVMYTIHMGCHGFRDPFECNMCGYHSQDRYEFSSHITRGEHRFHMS
Sequence of IKZF1 (Q96SW2 whole entry): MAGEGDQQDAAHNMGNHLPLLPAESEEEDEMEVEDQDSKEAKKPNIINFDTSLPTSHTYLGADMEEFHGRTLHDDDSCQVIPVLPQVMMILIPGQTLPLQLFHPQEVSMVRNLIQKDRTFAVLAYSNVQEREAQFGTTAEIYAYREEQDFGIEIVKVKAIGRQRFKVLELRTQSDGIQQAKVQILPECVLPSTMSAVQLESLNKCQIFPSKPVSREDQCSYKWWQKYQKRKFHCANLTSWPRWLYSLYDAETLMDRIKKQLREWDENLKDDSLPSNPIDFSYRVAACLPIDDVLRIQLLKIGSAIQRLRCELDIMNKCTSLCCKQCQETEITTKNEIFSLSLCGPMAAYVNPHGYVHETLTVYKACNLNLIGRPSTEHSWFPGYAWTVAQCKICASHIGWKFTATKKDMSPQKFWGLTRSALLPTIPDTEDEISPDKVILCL
Sequence of IKZF1 (Q16531 whole entry partner): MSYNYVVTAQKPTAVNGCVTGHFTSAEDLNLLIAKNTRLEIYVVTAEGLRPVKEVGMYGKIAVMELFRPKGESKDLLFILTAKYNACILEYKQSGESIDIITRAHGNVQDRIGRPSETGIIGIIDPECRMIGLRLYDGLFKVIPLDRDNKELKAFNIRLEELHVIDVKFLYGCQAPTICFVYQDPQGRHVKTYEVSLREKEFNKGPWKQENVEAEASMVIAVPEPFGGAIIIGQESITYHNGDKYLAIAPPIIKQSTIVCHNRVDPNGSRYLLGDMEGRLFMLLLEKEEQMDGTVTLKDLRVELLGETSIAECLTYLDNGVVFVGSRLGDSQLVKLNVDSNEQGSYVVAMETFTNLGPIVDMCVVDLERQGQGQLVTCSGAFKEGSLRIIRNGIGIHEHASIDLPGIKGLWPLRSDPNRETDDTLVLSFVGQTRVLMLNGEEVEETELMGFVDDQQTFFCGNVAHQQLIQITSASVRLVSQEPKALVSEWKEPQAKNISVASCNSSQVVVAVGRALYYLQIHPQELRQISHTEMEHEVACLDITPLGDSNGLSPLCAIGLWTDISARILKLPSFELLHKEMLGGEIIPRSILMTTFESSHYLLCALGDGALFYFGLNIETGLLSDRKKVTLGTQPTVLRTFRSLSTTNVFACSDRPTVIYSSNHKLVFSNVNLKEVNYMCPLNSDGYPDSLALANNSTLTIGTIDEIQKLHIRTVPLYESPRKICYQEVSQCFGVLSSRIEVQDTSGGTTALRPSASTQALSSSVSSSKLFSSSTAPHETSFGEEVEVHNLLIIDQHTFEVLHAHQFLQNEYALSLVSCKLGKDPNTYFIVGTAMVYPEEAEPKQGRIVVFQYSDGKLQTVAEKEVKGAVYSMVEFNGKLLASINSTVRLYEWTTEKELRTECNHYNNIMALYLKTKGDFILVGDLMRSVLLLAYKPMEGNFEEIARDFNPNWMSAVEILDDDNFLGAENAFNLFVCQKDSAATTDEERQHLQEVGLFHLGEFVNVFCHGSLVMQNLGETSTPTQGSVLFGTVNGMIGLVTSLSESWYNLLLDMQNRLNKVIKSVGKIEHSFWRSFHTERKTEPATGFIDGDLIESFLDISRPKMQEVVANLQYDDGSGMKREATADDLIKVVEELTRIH
Sequence of GSPT1 (P15170 whole entry, the tested form may be a part): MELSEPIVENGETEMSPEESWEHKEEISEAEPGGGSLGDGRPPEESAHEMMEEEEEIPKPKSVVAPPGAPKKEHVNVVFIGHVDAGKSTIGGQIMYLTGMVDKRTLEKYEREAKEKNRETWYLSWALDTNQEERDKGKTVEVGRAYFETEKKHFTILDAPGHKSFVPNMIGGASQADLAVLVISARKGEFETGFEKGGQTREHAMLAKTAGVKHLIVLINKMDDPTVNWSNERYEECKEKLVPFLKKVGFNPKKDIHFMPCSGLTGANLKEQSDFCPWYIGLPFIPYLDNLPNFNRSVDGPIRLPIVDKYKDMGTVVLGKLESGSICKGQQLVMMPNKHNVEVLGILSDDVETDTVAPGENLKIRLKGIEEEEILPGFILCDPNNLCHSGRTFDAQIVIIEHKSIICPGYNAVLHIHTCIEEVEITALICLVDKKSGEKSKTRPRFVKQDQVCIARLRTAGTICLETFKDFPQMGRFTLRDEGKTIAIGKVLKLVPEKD
Sequence of GSPT1 (Q96SW2 whole entry, the tested form may be a part): as the sequence (Q96SW2 whole entry) above
Sequence of GSPT1 (Q16531 whole entry partner, the tested form may be a part): as the sequence (Q16531 whole entry partner) above
Sequence of IKZF2 (Q9UKS7 whole entry): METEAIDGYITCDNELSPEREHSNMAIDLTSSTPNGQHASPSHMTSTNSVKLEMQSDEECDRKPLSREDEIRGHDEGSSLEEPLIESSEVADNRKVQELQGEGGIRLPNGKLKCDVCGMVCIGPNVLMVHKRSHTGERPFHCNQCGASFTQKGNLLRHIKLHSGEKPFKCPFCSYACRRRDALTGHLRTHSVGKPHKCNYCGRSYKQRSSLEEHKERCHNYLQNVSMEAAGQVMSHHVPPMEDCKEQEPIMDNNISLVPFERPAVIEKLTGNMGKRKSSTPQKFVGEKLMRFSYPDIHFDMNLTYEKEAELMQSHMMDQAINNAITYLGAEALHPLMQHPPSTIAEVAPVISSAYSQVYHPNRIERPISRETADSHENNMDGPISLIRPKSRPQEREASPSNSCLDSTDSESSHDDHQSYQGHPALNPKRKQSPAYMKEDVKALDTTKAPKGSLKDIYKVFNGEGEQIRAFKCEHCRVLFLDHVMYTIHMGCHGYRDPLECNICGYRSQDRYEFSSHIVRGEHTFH
Sequence of IKZF2 (Q96SW2 whole entry): as the sequence (Q96SW2 whole entry) above
Sequence of IKZF2 (Q16531 whole entry partner): as the sequence (Q16531 whole entry partner) above

Compound	inhibition at 10 µM (IKZF2; [1]) [%]	DC50 (IKZF2; [2]) [µM]	DC50 (IKZF1) [µM]	DC50 (GSPT1) [µM]	inhibition at 10 µM (IKZF2; [3]) [%]	IKZF2 protein levels as compared to the control (DMSO) (IKZF2; [4])
CC(c1ccccc1)N1CCC(c2ccc3c(c2)CN(C2CCC(=O)NC2=O)C3=O)CC1 (racemic) [Compound I-62, 3-(1-oxo-5-(1-(1-phenylethyl)piperidin-4-yl)isoindolin-2-yl)piperidine-2,6-dione]	75	0.007	> 50	> 30	–	–
O=C1CCC(N2Cc3cc([C@@H]4CCCNCC4)ccc3C2=O)C(=O)N1 (single isomer, unassigned) [Compound I-166, 3-(5-(azepan-4-yl)-1-oxoisoindolin-2-yl)piperidine-2,6-dione]	25	–	> 50	> 50	–	–
O=C1CCC(N2Cc3cc(C4CCCNCC4)ccc3C2=O)C(=O)N1 (single isomer, unassigned) [Compound I-167, 3-(5-(azepan-4-yl)-1-oxoisoindolin-2-yl)piperidine-2,6-dione]	25	–	> 50	> 50	–	–
O=C1CCC(N2Cc3cc(C4CCN(CC5CCCCC5)CC4)ccc3C2=O)C(=O)N1 (stereo not drawn) [Compound I-11, 3-(5-(1-(cyclohexylmethyl)piperidin-4-yl)-1-oxoisoindolin-2-yl)piperidine-2,6-dione]	65	0.013	> 50	> 50	–	–
N#Cc1ccc(CN2CCC(c3ccc4c(c3)CN(C3CCC(=O)NC3=O)C4=O)CC2)cc1 (stereo not drawn) [Compound I-31, 3-(5-(1-(4-nitrilebenzyl)piperidin-4-yl)-1-oxoisoindolin-2-yl)piperidine-2,6-dione]	–	0.004	> 50	> 50	60	–
N#Cc1cccc(CN2CCC(c3ccc4c(c3)CN(C3CCC(=O)NC3=O)C4=O)CC2)c1 (stereo not drawn) [Compound I-36, 3-((4-(2-(2,6-dioxopiperidin-3-yl)-1-oxoisoindolin-5-yl)piperidin-1-yl)methyl)benzonitrile]	75	0.017	> 30	> 30	–	–
COc1ccc(CN2CCC(c3ccc4c(c3)CN(C3CCC(=O)NC3=O)C4=O)CC2)cc1 (stereo not drawn) [Compound I-39, 3-(5-(1-(4-methoxybenzyl)piperidin-4-yl)-1-oxoisoindolin-2-yl)piperidine-2,6-dione]	–	–	> 50	> 50	45	–
O=C1CCC(N2Cc3cc(C4CCN(Cc5cccc6[nH]ncc56)CC4)ccc3C2=O)C(=O)N1 (stereo not drawn) [Compound I-43, 3-(5-(1-((1H-indazol-4-yl)methyl)piperidin-4-yl)-1-oxoisoindolin-2-yl)piperidine-2,6-dione]	80	0.012	> 30	> 30	–	decreased
O=C1CCC(N2Cc3cc(C4CCN(Cc5cccnc5)CC4)ccc3C2=O)C(=O)N1 (stereo not drawn) [Compound I-59, 3-(1-oxo-5-(1-(pyridin-3-ylmethyl)piperidin-4-yl)isoindolin-2-yl)piperidine-2,6-dione]	80	0.031	> 30	> 30	–	–
O=C1CCC(N2Cc3cc(C4CCN(Cc5ccc(F)c(F)c5)CC4)ccc3C2=O)C(=O)N1 (stereo not drawn) [Compound I-64, 3-(5-(1-(3,4-difluorobenzyl)piperidin-4-yl)-1-oxoisoindolin-2-yl)piperidine-2,6-dione]	75	0.025	> 30	> 30	–	–
COc1ncc(CN2CCC(c3ccc4c(c3)CN(C3CCC(=O)NC3=O)C4=O)CC2)cn1 (stereo not drawn) [Compound I-68, 3-(5-(1-((2-methoxypyrimidin-5-yl)methyl)piperidin-4-yl)-1-oxoisoindolin-2-yl)piperidine-2,6-dione]	50	0.003	> 50	> 30	–	decreased
O=C1CCC(N2Cc3cc(C4CCN(Cc5ccc(C(F)F)cc5)CC4)ccc3C2=O)C(=O)N1 (stereo not drawn) [Compound I-70, 3-(5-(1-(4-(difluoromethyl)benzyl)piperidin-4-yl)-1-oxoisoindolin-2-yl)piperidine-2,6-dione]	75	0.012	> 30	> 30	–	–
NC(=O)c1ccc(CN2CCC(c3ccc4c(c3)CN(C3CCC(=O)NC3=O)C4=O)CC2)cc1 (stereo not drawn) [Compound I-71, 4-((4-(2-(2,6-dioxopiperidin-3-yl)-1-oxoisoindolin-5-yl)piperidin-1-yl)methyl)benzamide]	80	0.027	> 30	> 30	–	–
O=C1CCC(N2Cc3cc(C4CCN(Cc5ccc(OC(F)F)cc5)CC4)ccc3C2=O)C(=O)N1 (stereo not drawn) [Compound I-77, 3-(5-(1-(4-(difluoromethoxy)benzyl)piperidin-4-yl)-1-oxoisoindolin-2-yl)piperidine-2,6-dione]	80	0.007	> 30	> 30	–	–
CC(=O)Nc1ccc(CN2CCC(c3ccc4c(c3)CN(C3CCC(=O)NC3=O)C4=O)CC2)cc1 (stereo not drawn) [Compound I-86, N-(4-((4-(2-(2,6-dioxopiperidin-3-yl)-1-oxoisoindolin-5-yl)piperidin-1-yl)methyl)phenyl)acetamide]	75	0.029	> 30	> 30	–	–
O=C1CCC(N2Cc3cc(C4CCN(Cc5ccc6c(c5)OCCCO6)CC4)ccc3C2=O)C(=O)N1 (stereo not drawn) [Compound I-88, 3-(5-(1-((3,4-dihydro-2H-benzo[b][1,4]dioxepin-7-yl)methyl)piperidin-4-yl)-1-oxoisoindolin-2-yl)piperidine-2,6-dione]	70	0.005	> 30	> 30	–	–
CC(C)Oc1ccc(CN2CCC(c3ccc4c(c3)CN(C3CCC(=O)NC3=O)C4=O)CC2)cn1 (stereo not drawn) [Compound I-285, 3-(5-(1-((6-isopropoxypyridin-3-yl)methyl)piperidin-4-yl)-1-oxoisoindolin-2-yl)piperidine-2,6-dione]	70	0.012	> 30	–	–	–
O=C1CCC(N2Cc3cc(C4CCN(Cc5ccnn5-c5ccccc5)CC4)ccc3C2=O)C(=O)N1 (stereo not drawn) [Compound I-286, 3-(1-oxo-5-(1-((1-phenyl-1H-pyrazol-5-yl)methyl)piperidin-4-yl)isoindolin-2-yl)piperidine-2,6-dione]	40	0.72	> 30	–	–	–
CCOc1ccc(CN2CCC(c3ccc4c(c3)CN(C3CCC(=O)NC3=O)C4=O)CC2)cc1 (stereo not drawn) [Compound I-287, 3-(5-(1-(4-ethoxybenzyl)piperidin-4-yl)-1-oxoisoindolin-2-yl)piperidine-2,6-dione]	70	0.018	> 30	–	–	–
O=C1CCC(N2Cc3cc(C4CCN(Cc5cnn(-c6ccccc6)c5)CC4)ccc3C2=O)C(=O)N1 (stereo not drawn) [Compound I-288, 3-(1-oxo-5-(1-((1-phenyl-1H-pyrazol-4-yl)methyl)piperidin-4-yl)isoindolin-2-yl)piperidine-2,6-dione]	80	0.012	> 30	–	–	–
CC(C)n1nccc1CN1CCC(c2ccc3c(c2)CN(C2CCC(=O)NC2=O)C3=O)CC1 (stereo not drawn) [Compound I-289, 3-(5-(1-((1-isopropyl-1H-pyrazol-5-yl)methyl)piperidin-4-yl)-1-oxoisoindolin-2-yl)piperidine-2,6-dione]	60	0.076	> 30	–	–	–
O=C1CCC(N2Cc3cc(C4CCN(Cc5ccns5)CC4)ccc3C2=O)C(=O)N1 (stereo not drawn) [Compound I-290, 3-(5-(1-(isothiazol-5-ylmethyl)piperidin-4-yl)-1-oxoisoindolin-2-yl)piperidine-2,6-dione]	60	0.49	> 30	–	–	–
CC(C)Oc1cccc(CN2CCC(c3ccc4c(c3)CN(C3CCC(=O)NC3=O)C4=O)CC2)n1 (stereo not drawn) [Compound I-301, 3-(5-(1-((6-isopropoxypyridin-2-yl)methyl)piperidin-4-yl)-1-oxoisoindolin-2-yl)piperidine-2,6-dione]	60	0.14	0.32	–	–	–
